Source: patent publication US6034134A, “1-Amino-alkylcyclohexane NMDA receptor antagonists” (Merz + Co. GmbH & Co., priority 1998, dated 2000)
Where a name gives a salt, the structure may show the parent alone. Read-outs that look alike come from different tables or passages of the source.

Key:
[1] = Traction reflex test (myorelaxant action) in mice, therapeutic index versus MES; type: in vivo; details: ED50 for traction reflex impairment divided by ED50 for MES; for TI Tract: 30 min; for selectivity ratio at 0.5 h: mouse, in vivo, ip, read-out: TI Tract
Description: NMR female mice (18-28 g) housed 5 per cage were used for the maximal electroshock (MES) and motor impairment tests. […] All compounds were dissolved in 0.9% saline.
The MES test was performed together with tests for myorelaxant action (traction reflex) and motor coordination (rotarod). For the traction reflex test mice were placed with their forepaws on a horizontal rod and were required to place all 4 paws on the wire within 10 seconds. To test ataxia (motor coordination) mice were placed on rotarod (5 rpm) and were required to remain on the rod for 1 minute. […] These tests were followed by MES (100 Hz, 0.5 second shock duration, 50 mA shock intensity, 0.9 ms impulse duration, Ugo Basile) applied through corneal electrodes. The presence of tonic convulsions was scored (tonic extension of hind paws with minimum angle to the body of 90°). The aim was to obtain ED50 s for all parameters scored (anticonvulsive activity and motor side effects) with use of the Litchfield Wilcoxon test for quantal dose responses. Division of the ED50 for side effects (ataxia or myorelaxation) by the ED50 for antagonism of electroshock convulsions was used as a therapeutic index (TI). […]

NMDA receptor = test: Patch clamp: NMDA-induced inward currents in cultured hippocampal neurones; type: cell-based, rat
Description: Hippocampi were obtained from rat embryos (E20 to E21) and were then transferred to calcium and magnesium free Hank's buffered salt solution (Gibco) on ice. Cells were mechanically dissociated in 0.05% DNAase/0.3% ovomucoid (Sigma) following an 8 minute pre-incubation with 0.66% trypsin/0.1% DNAase (Sigma). The dissociated cells were then centrifuged at 18 ×g for 10 minutes, re-suspended in minimum essential medium (Gibco) and plated at a density of 150,000 cells cm^-2 onto poly-L-lysine (Sigma)-precoated plastic petri dishes (Falcon). The cells were nourished with NaHCO3 /HEPES-buffered minimum essential medium supplemented with 5% fetal calf serum and 5% horse serum (Gibco) and incubated at 37° C. with 5% CO2 at 95% humidity. […] Thereafter the medium was exchanged partially twice weekly.
Patch clamp recordings were made from these neurones with polished glass electrodes (4-6 m.OMEGA.) in the whole cell mode at room temperature (20-22° C.) with the aid of an EPC-7 amplifier (List). Test substances were applied by switching channels of a custom-made fast superfusion system with a common outflow (10-20 ms exchange times). The contents of the intracellular solution were as follows (mM): CsCl (120), TEACl (20), EGTA (10), MgCl2 (1), CaCl2 -(0.2), glucose (10), ATP(2), cAMP (0.25); pH was adjusted to 7.3 with CsOH or HC1. The extracellular solutions had the following basic composition (mM): NaCl (140), KCl (3), CaCl2 (0.2), glucose (10), HEPES (10), sucrose (4.5), tetrodotoxin (TTX 3*10^-4). Glycine (1 μM) was present in all solutions: a concentration sufficient to cause around 80-85% activation of glycineB receptors. Only results from stable cells were accepted for inclusion in the final analysis, i.e., following recovery of responses to NMDA by at least 75% of their depression by the antagonists tested.
(§1) IC50 s in patch clamp, excitotoxicity, and binding studies were calculated according to the four parameter logistic equation using the Grafit computer program (Erithacus Software, England). Ki value for binding studies were then determined according to Cheng and Prusoff. Binding values presented are means±SEM of 3-5 determinations (each performed in duplicate). […] Pearson product moment correlation analysis (Sigma Stat, Jandel Scientific) was used to compare in vitro potencies and in vivo anticonvulsant activity.

[2] = Rotarod test (motor coordination, ataxia) in mice, therapeutic index versus MES; type: in vivo; details: ED50 for rotarod failure divided by ED50 for MES; for selectivity ratio at 0.5 h: mouse, in vivo, ip, read-out: TI Rot.; for TI Rot.: 30 min
Description: All compounds were dissolved in 0.9% saline.
The MES test was performed together with tests for myorelaxant action (traction reflex) and motor coordination (rotarod). For the traction reflex test mice were placed with their forepaws on a horizontal rod and were required to place all 4 paws on the wire within 10 seconds. To test ataxia (motor coordination) mice were placed on rotarod (5 rpm) and were required to remain on the rod for 1 minute. […] These tests were followed by MES (100 Hz, 0.5 second shock duration, 50 mA shock intensity, 0.9 ms impulse duration, Ugo Basile) applied through corneal electrodes. The presence of tonic convulsions was scored (tonic extension of hind paws with minimum angle to the body of 90°). The aim was to obtain ED50 s for all parameters scored (anticonvulsive activity and motor side effects) with use of the Litchfield Wilcoxon test for quantal dose responses. Division of the ED50 for side effects (ataxia or myorelaxation) by the ED50 for antagonism of electroshock convulsions was used as a therapeutic index (TI).
as §1, with “Prusoff.” for “Prusoff. Binding values presented are means±SEM of 3-5 determinations (each performed in duplicate).”

[3] = Solubility (analytical certificates); type: physicochemical
[4] = Table 7; NMDA 200 μM with glycine 1 μM at -70 mV; read-out: Patch Clamp IC50
[5] = Table 9; NMDA-induced currents; read-out: Patch Clamp IC50
[6] = read-out: Patch Clamp IC50; Table 7; NMDA 200 μM with glycine 1 μM at -70 mV
[7] = read-out: Patch Clamp IC50; Table 9; NMDA-induced currents

Row | SMILES | TI Tract [1] | IC50 (NMDA receptor; [4]) | IC50 (NMDA receptor; [5]) | selectivity ratio at 0.5 h [2] | Solubility [3] | selectivity ratio at 0.5 h [1] | IC50 (NMDA receptor; [6]) | IC50 (NMDA receptor; [7]) | TI Rot. [2]
1 | CCC[C@]1(C)C[C@@H](C)C[C@@](C)(N)C1 (relative stereo) [Mrz 2/619] | 1.0 | 60.8 µM | 60.9 µM | – | – | – | – | – | –
2 | CCC1(C)CC(C)(C)CC(C)(N)C1 (stereo not drawn) [Mrz 2/615, 1-amino-1,3,5,5-tetramethyl-3-ethylcyclohexane] | 2.5 | 2.9 µM | 2.9 µM | – | – | – | – | – | –
3 | CC1(N)CCCCC1 [Mrz 2/641] | – | > 100 µM | > 100 µM | – | – | – | – | – | –
4 | CC[C@H]1CC(C)(C)C[C@](C)(N)C1 [MRZ 2/682, (1R, 5S) trans-3-Ethyl-1,5,5-trimethylcyclohexylamine hydrochloride] | – | – | 3.9 µM | 3.6 | soluble in chloroform, poor soluble in water | 2.7 | – | – | –
5 | CCC1(CC)CC(C)(C)CC(C)(N)C1 (stereo not drawn) [Mrz 2/623, 1-amino-1,5,5-trimethyl-3,3-diethylcyclohexane] | 1.4 | 3.7 µM | 3.7 µM | – | – | – | – | – | –
6 | CCCC1(CCC)CC(C)(C)CC(C)(N)C1 (stereo not drawn) [Mrz 2/626] | – | 9.6 µM | 9.6 µM | 1 | – | 1.1 | – | – | –
7 | CC1(C)CC(N)CC(C)(C)C1 [Mrz 2/557] | 1.0 | 18.5 µM | 18.5 µM | – | – | – | – | – | –
8 | CC1(C)CC(CN)CC(C)(C)C1.Cl [Mrz 2/580, 3,3,5,5-tetramethylcyclohexylmethylamine hydrochloride] | 1.6 | 12.9 µM | 12.9 µM | – | – | – | – | – | –
9 | C[C@H]1CC(C)(C)C[C@@](C)(N)C1 (relative stereo) [Mrz 2/643] | – | 13.5 µM | 13.5 µM | 2.4 | – | 1.3 | – | – | –
10 | CC[C@@]1(C)C[C@H](C)C[C@@](C)(N)C1 (relative stereo) [Mrz 2/622] | 1.1 | 64.8 µM | 58.2 µM | – | – | – | – | – | –
11 | CCC[C@@]1(C)C[C@H](C)C[C@@](C)(N)C1 (relative stereo) [Mrz 2/618] | 1.2 | 43.7 µM | 57.5 µM | – | – | – | – | – | –
12 | CCCC1(C)CCCC(C)(N)C1 (stereo not drawn) [Mrz 2/617] | – | 57.4 µM | 63.9 µM | 1.1 | – | – | – | – | –
13 | C[C@@H]1CCC[C@@](C)(N)C1 (relative stereo) [Mrz 2/625] | 0.5 | 245 µM | 245 µM | – | – | – | – | – | –
14 | CC[C@]1(C)C[C@@H](C)C[C@@](C)(N)C1 (relative stereo) [Mrz 2/624] | 0.9 | 31 µM | 31 µM | – | – | – | – | – | –
15 | CCNC1(C)CC(C)(C)CC(C)(C)C1 [Mrz 2/639, N-ethyl-1-amino-1,3,3,5,5-pentamethylcyclohexane] | 2.6 | 7.4 µM | 7.4 µM | – | – | – | – | – | –
16 | CC1(C)CCCC(C)(N)C1 (stereo not drawn) [Mrz 2/621] | – | – | – | 1.5 | – | 1.8 | 92.4 µM | 92.4 µM | –
17 | CN(C)C1(C)CC(C)(C)CC(C)(C)C1 [Mrz 2/642] | 4.1 | – | – | – | – | – | 42.5 µM | 42.5 µM | 5.3
18 | CC[C@H]1CC(C)(C)C[C@@](C)(N)C1 (relative stereo) [Mrz 2/632] | 2.7 | 6.4 µM | 6.4 µM | – | – | – | – | – | –

Row | SMILES | TI Tract [1] | IC50 (NMDA receptor; [4]) | IC50 (NMDA receptor; [5]) | selectivity ratio at 0.5 h [2] | Solubility [3] | selectivity ratio at 0.5 h [1] | IC50 (NMDA receptor; [6]) | IC50 (NMDA receptor; [7]) | TI Rot. [2]
19 | C[C@@H]1CC(C)(C)C[C@@](C)(N)C1 (relative stereo) [Mrz 2/607] | 1.3 | 13.8 µM | 13.8 µM | – | – | – | – | – | –
20 | CC[C@@H]1CCC[C@@](C)(N)C1 (relative stereo) [Mrz 2/629] | 0.9 | 219 µM | 219 µM | – | – | – | – | – | –
21 | CCC[C@@H]1CC(C)(C)C[C@](C)(N)C1 (relative stereo) [Mrz 2/634] | – | 10.8 µM | 10.8 µM | – | – | – | – | – | –
22 | C[C@@H]1C[C@H](C)C[C@@](C)(N)C1 [MRZ 2/680, 1,trans-3,trans-5-Trimethylcyclohexylamine hydrochloride] | – | – | 43 µM | 1.1 | soluble in water, chloroform | 0.7 | – | – | –
23 | CCC[C@H]1CCC[C@@](C)(N)C1 (relative stereo) [Mrz 2/628] | 0.8 | 126 µM | 126 µM | – | – | – | – | – | –
24 | CC1(C)CC(CCN)CC(C)(C)C1 [Mrz 2/644] | 0.5 | 4.1 µM | 4.1 µM | – | – | – | – | – | –
25 | C[C@H]1CCC[C@@](C)(N)C1 (relative stereo) [Mrz 2/631] | – | > 100 µM | > 100 µM | – | – | – | – | – | –
26 | CC[C@H]1CCC[C@@](C)(N)C1 (relative stereo) [Mrz 2/630] | – | > 100 µM | 100 µM | – | – | – | – | – | –
27 | CCC1(N)CC(C)(C)CC(C)(C)C1 [Mrz 2/600, 1-amino-1-ethyl-3,3,5,5-tetramethylcyclohexane] | 0.6 | 3.7 µM | 3.49 µM | – | – | – | – | – | –
28 | CCC[C@@H]1CCC[C@@](C)(N)C1 (relative stereo) [Mrz 2/627] | 0.8 | 210 µM | 150 µM | – | – | – | – | – | –
29 | CC(C)(N)CC1CC(C)(C)CC(C)(C)C1 [Mrz 2/645] | – | 20.4 µM | 20.4 µM | 0.6 | – | – | – | – | –
30 | CNC1(C)CC(C)(C)CC(C)(C)C1.Cl [Mrz 2/640, N,1,3,3,5,5-hexamethylcyclohexanamine hydrochloride] | 2.3 | 14.6 µM | 14.6 µM | – | – | – | – | – | –
31 | CC1CC(C)CC(C)(N)C1 (stereo not drawn) [Mrz 2/616, 1-amino-1,3,5-trimethylcyclohexane] | 1.0 | 34.2 µM | 33.2 µM | – | soluble in svater, chloroform | – | – | – | –
32 | CCC1(C)CCCC(C)(N)C1 (stereo not drawn) [Mrz 2/620] | – | 99 µM | 99 µM | 1.5 | – | 1.6 | – | – | –
33 | CCCC1(C)CC(C)(C)CC(C)(N)C1 (stereo not drawn) [Mrz 2/614] | – | 13.9 µM | 13.9 µM | 1.6 | – | 1.9 | – | – | –
34 | CCCC1(N)CC(C)(C)CC(C)(C)C1 [Mrz 2/601, 1-amino-1-propyl-3,3,5,5-tetramethylcyclohexane] | 1.5 | – | – | – | – | – | 10.5 µM | 10 µM | 1.5
35 | CC[C@@H]1CC(C)(C)C[C@@](C)(N)C1 (relative stereo) [Mrz 2/633] | 2.4 | 13.9 µM | 13.9 µM | – | – | – | – | – | –
36 | CCC[C@@H]1CC(C)(C)C[C@@](C)(N)C1 (relative stereo) [Mrz 2/635] | 1.3 | 21 µM | 21 µM | – | – | – | – | – | –
